Patent US20250197642A1, “PHTHALOCYANINE PIGMENT, PHTHALOCYANINE COMPOUND, COLORING COMPOSITION, METHOD FOR PRODUCING PHTHALOCYANINE PIGMENT, AND METHOD FOR PRODUCING COLORING COMPOSITION” (FUJIFILM CORPORATION, priority 2022, published 2025)

What was measured:
[1] = Evaluation of light fastness (compound residual rate after xenon light irradiation of ink jet image); format: physicochemical; settings: aqueous coloring compositions 1 to 8 and A to C; image on art paper, xenon light 85,000 lux, 100 hours
Text: The pigment dispersion liquid 1, a polyurethane resin (HYDRAN (registered trademark) AP-40F (manufactured by DIC Corporation)), and deionized water were mixed to produce an aqueous pigment dispersion liquid 1 having a pigment content of 10% by mass and a polyurethane resin non-volatile content of 2% by mass.
The following components were mixed to obtain a coloring composition 1.
Coloring compositions 2 to 8 were obtained in the same manner as in the above-described method, except that the pigment dispersion liquid 1 was changed to each of the pigment dispersion liquids 2 to 8.
A coloring composition A was obtained in the same manner as in the above-described method, except that the pigment dispersion liquid 1 was changed to the pigment dispersion liquid A. […]
The above-described image was irradiated with xenon light (85,000 lux) for 100 hours using a weather meter (manufactured by Atlas, Ci65), and a reflection density after the irradiation with xenon light was measured using a reflection densitometer (manufactured by X-Rite, Inc., trade name: X-Rite i1Pro). […]
A compound residual rate (%) before and after the irradiation with xenon light was calculated from the following expression, and evaluated based on the following evaluation standard. […]

[2] = Evaluation of storage stability (viscosity increase proportion after storage); format: physicochemical; settings: aqueous coloring compositions 1 to 8 and A to C; stored 7 days at 45° C., viscosity at 25° C.
Experimental: In an environment of 45° C. by an oven, the coloring compositions 1 to 8 and the coloring compositions A to C were stored for 7 days.
A viscosity of the coloring composition before and after the storage was measured, a viscosity increase proportion (Viscosity after storage−Viscosity before storage)/Viscosity before storage×100 was determined, and the evaluation was performed based on the following evaluation standard.
The viscosity of the coloring composition was measured using a viscometer RE85L (rotor: 1°34′×R24, measurement range: 0.6 to 1200 mPa·s) manufactured by TOKI-SANGYO Co., Ltd. in a state in which the temperature was adjusted to 25° C.
• A: viscosity increase proportion was 10% or less. • B: viscosity increase proportion was more than 10%.

C. I. Pigment Green 58 [PG58]
Evaluation of light fastness [1]: A (compound residual rate was 80% or more)
Evaluation of storage stability [2]: B (viscosity increase proportion was more than 10%)
